Laboratory results: PMC7745420 (ACS Omega, 2020)

Molecular target: p97/VCP (Homo sapiens, UniProt P55072)
Experiment: ATPase assay on purified human p97/VCP
Assay type: biochemical

Chain of p97/VCP (P55072 2-806): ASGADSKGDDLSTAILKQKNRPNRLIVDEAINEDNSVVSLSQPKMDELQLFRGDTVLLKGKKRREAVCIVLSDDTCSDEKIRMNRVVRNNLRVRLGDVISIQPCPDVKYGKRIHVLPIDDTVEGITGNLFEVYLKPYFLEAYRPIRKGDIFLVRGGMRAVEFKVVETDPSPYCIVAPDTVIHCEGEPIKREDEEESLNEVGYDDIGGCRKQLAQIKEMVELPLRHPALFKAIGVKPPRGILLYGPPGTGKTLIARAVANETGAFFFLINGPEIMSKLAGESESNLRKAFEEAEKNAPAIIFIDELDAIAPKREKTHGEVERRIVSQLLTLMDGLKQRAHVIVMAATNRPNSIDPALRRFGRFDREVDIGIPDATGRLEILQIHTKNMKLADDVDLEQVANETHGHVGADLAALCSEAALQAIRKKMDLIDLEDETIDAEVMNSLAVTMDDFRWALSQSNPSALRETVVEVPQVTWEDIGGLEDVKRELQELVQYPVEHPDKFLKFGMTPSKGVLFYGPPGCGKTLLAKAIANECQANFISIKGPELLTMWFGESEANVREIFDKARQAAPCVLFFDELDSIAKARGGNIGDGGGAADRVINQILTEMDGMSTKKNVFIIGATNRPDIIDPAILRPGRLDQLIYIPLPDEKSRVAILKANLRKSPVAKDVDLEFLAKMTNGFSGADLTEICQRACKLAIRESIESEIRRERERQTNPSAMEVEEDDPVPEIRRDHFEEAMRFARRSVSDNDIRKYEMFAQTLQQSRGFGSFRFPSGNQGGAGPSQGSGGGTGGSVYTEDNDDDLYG

## NCCc1cn(-c2nc(NCc3ccccc3)c3ccccc3n2)c2ccccc12 [FQ393, 2-[3-(2-Aminoethyl)-1H-indol-1-yl]-N-benzylquinazolin-4-amine]
  IC50: 0.9 ± 0.11 µM
